Test results: patent US9890147B2 (BAYER PHARMA AKTIENGESELLSCHAFT, priority 2012, dated 2018)

Experiments:
[1] = system: B16F10 cells; assay: Cell proliferation assay (alamarBlue), B16F10; type: cell-based; conditions: Mus musculus, B16-F10, 96 hours incubation, inhibition of cell proliferation
Protocol: (§1) In accordance with the invention, the capability of the substances to inhibit cell proliferation was determined Cell viability was determined using the alamarBlue® reagent (Invitrogen) in a Victor X3 Multilabel Reader (Perkin Elmer). The excitation wavelength was 530 nm and the emission wavelenth […].
The B16F10 cells (ATCC, CRL-6475) were sown at a concentration of 300-500 cells/well in 100 μl growth medium (DMEM with phenol red, 10% FCS) on 96-well microtitre plates.
(§2) After an overnight incubation at 37° C., the fluorescence values (CI values) were determined. The plates were then treated with various substance dilutions (1E-5 M, 3E-6 M, 1E-6M, 3E-7 M, 1E-7 M, 3E-8 M, 1E-8 M) and incubated at 37° C. for 72 (MV4-11-, LOX-IMVI cells), 96 (MOLM-13-, B16F10-, MDA-MB-431-, Caov-3 cells), 120 (MOLP-8-, KMS-12-PE cells) or 168 (LAPC-4 cells) hours. The fluorescence values (CO values) were then determined. For the data analysis, the CI values were subtracted from the CO values and the results were compared between cells treated with different dilutions of the substance or with buffer solution only. These were used to calculate the IC 50 values (substance concentration required for 50% inhibition of cell proliferation).

[2] = biological target: T1, BRD4 (BD1) (Homo sapiens, UniProt O60885); assay: Binding assay BRD4/acetylated peptide H4 (TR-FRET protein-protein interaction assay)
T1 construct: with relatively long constructs also being possible, preferably amino acids 44-168; made in house; host or cells: E. coli
Summary of the method: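 Displacement of biotin-Ac-H4 peptide from His6-tagged BRD4(BD1), final usually 10 nM, read as Eu-streptavidin to anti-His-XL665 TR-FRET (665/620 nm). Compounds tested at 11 doses up to 20 μM in duplicate, pH 7.5 HEPES, 22 °C then 4 °C incubation; IC50 by 4-parameter regression.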

[3] = system: MOLM-13 cells; assay: Cell proliferation assay (alamarBlue), MOLM-13; type: cell-based; conditions: Homo sapiens, 96 hours incubation, inhibition of cell proliferation
Summary of the method: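 IC50 = concentration giving 50% growth inhibition relative to buffer-treated cells, after subtracting baseline fluorescence taken before dosing. Compound applied at 1E-5 to 1E-8 M for 96 h at 37 °C in RPMI1640 with 10% FCS; alamarBlue signal at 530/590 nm.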

[4] = system: MV4-11 cells; assay: Cell proliferation assay (alamarBlue), MV4-11; type: cell-based; conditions: Homo sapiens, 72 hours incubation, inhibition of cell proliferation
Protocol: as §1
The MV4-11 cells (ATCC, CRL 9591) were sown at a concentration of 5000 cells/well in 100 μl growth medium (RPMI1640, 10% FCS) on 96-well microtitre plates.
as §2

[5] = system: Caov-3 cells; assay: Cell proliferation assay (alamarBlue), Caov-3; type: cell-based; conditions: Homo sapiens; inhibition of cell proliferation, Caov-3 (ovarian carcinoma), 96 hours
Protocol: as §1
The MDA-MB-231 cells (DSMZ, ACC 732) were sown at a concentration of 4000 cells/well in 100 μl growth medium (DMEM/Ham's F12 medium, 10% FCS) on 96-well microtitre plates. The Caov-3 cells (ATCC, HTB-75) were sown at a concentration of 2000 cells/well in 100 μl growth medium (MEM Earle's medium, 10% FCS) on 96-well microtitre plates.
as §2

[6] = system: MOLP-8 cells; assay: Cell proliferation assay (alamarBlue), MOLP-8; type: cell-based; conditions: Homo sapiens, 120 hours incubation, inhibition of cell proliferation
Protocol: as §1
The MOLP-8 cells (DSMZ, ACC 569) were sown at a concentration of 4000 cells/well in 100 μl growth medium (RPMI1640, 20% FCS) on 96-well microtitre plates.
as §2

[7] = system: LOX-IMVI cells; assay: Cell proliferation assay (alamarBlue), LOX-IMVI; type: cell-based; conditions: Homo sapiens, 72 hours incubation, inhibition of cell proliferation
Protocol: as §1
The LOX-IMVI cells (NCI-60) were sown at a concentration of 1000 cells/well in 100 μl growth medium (RPMI1640, 10% FCS) on 96-well microtitre plates.
as §2

[8] = system: KMS-12-PE cells; assay: Cell proliferation assay (alamarBlue), KMS-12-PE; type: cell-based; conditions: Homo sapiens, 120 hours incubation, inhibition of cell proliferation
Protocol: as §1
The KMS-12-PE cells (DSMZ, ACC 606) were sown at a concentration of 4000 cells/well in 100 μl growth medium (RPMI1640, 20% FCS) on 96-well microtitre plates.
as §2

| Compound | IC50 [1] [µM] | IC50 [2] [µM] | IC50 [3] [µM] | IC50 [4] [µM] | IC50 [5] [µM] | IC50 [6] [µM] | IC50 [7] [µM] | IC50 [8] [µM] |
| --- | --- | --- | --- | --- | --- | --- | --- | --- |
| CNC(=O)N1N=C(c2ccc(N3CC(F)(F)C3)cc2)c2cc(OC)c(OC)cc2CC1C (racemic) [Example 181, (±)-1-[4-(3,3-difluoroazetidin-1-yl)phenyl]-7,8-dimethoxy-N,4-dimethyl-4,5-dihydro-3H-2,3-benzodiazepine-3-carboxamide] | 0.17 | 0.07 | 0.3 |  |  |  |  |  |
| CNC(=O)N1N=C(c2ccc(N3CC(O)C3)cc2)c2cc(OC)c(OC)cc2CC1C (racemic) [Example 184, (±)-1-[4-(3-hydroxyazetidin-1-yl)phenyl]-7,8-dimethoxy-N,4-dimethyl-4,5-dihydro-3H-2,3-benzodiazepine-3-carboxamide] | 0.13 | 0.06 | 0.3 |  |  |  |  |  |
| CNC(=O)N1N=C(c2ccc(N3CC(C)(O)C3)cc2)c2cc(OC)c(OC)cc2CC1C (racemic) [Example 185, (±)-1-[4-(3-hydroxy-3-methylazetidin-1-yl)phenyl]-7,8-dimethoxy-N,4-dimethyl-4,5-dihydro-3H-2,3-benzodiazepine-3-carboxamide] | 0.16 | 0.07 | 0.28 |  |  |  |  |  |
| CNC(=O)N1N=C(c2ccc(N3CCN(C(C)C)CC3)cc2)c2cc(OC)c(OC)cc2CC1C (racemic) [Example 186, (±)-1-[4-(4-Isopropylpiperazin-1-yl)phenyl]-7,8-dimethoxy-N,4-dimethyl-4,5-dihydro-3H-2,3-benzodiazepine-3-carboxamide] | 0.24 | 0.13 | 0.33 |  |  |  |  |  |
| CNC(=O)N1N=C(c2ccc(N3CC(OC)C3)cc2)c2cc(OC)c(OC)cc2CC1C (racemic) [Example 187, (±)-7,8-dimethoxy-1-[4-(3-methoxyazetidin-1-yl)phenyl]-N,4-dimethyl-4,5-dihydro-3H-2,3-benzodiazepine-3-carboxamide] | 0.17 | 0.08 | 0.33 |  |  |  |  |  |
| CNC(=O)N1N=C(c2ccc(N3CCC(C)(O)CC3)cc2)c2cc(OC)c(OC)cc2CC1C (racemic) [Example 188, (±)-1-[4-(4-hydroxy-4-methylpiperidin-1-yl)phenyl]-7,8-dimethoxy-N,4-dimethyl-4,5-dihydro-3H-2,3-benzodiazepine-3-carboxamide] | 0.1 | 0.05 | 0.2 |  |  |  |  |  |
| CNC(=O)C1CCN(c2ccc(C3=NN(C(=O)NC)C(C)Cc4cc(OC)c(OC)cc43)cc2)CC1 (racemic) [Example 189, (±)-7,8-dimethoxy-N,4-dimethyl-1-{4-[4-(methylcarbamoyl)piperidin-1-yl]phenyl}-4,5-dihydro-3H-2,3-benzodiazepine-3-carboxamide] | 0.21 | 0.06 | 0.44 |  |  |  |  |  |
| CNC(=O)N1N=C(c2ccc(N3CCN(C)CC3)cc2)c2cc(OC(F)(F)F)ccc2CC1C (racemic) [Example 250, (±)-N,4-dimethyl-1-[4-(4-methyl-1-piperazinyl)phenyl]-8-(trifluoromethoxy)-4,5-dihydro-3H-2,3-benzodiazepine-3-carboxamide] | 0.1 | 0.04 | 0.14 |  |  |  |  |  |
| CNC(=O)N1N=C(c2ccc(-c3c(C)nn(C)c3C)cc2)c2cc(OC)c(OC)cc2C[C@@H]1C [Example 51.2, (4S)-7,8-dimethoxy-N,4-dimethyl-1-[4-(1,3,5-trimethyl-1H-pyrazol-4-yl)phenyl]-4,5-dihydro-3H-2,3-benzodiazepine-3-carboxamide] |  | 0.03 | 0.11 | 0.05 | 0.13 | 0.05 | 0.17 | 0.04 |
| CNC(=O)N1N=C(c2ccc(N3CCC3)cc2)c2cc(OC)c(OC)cc2C[C@@H]1C [Example 128.2, (4S)-1-[4-(azetidin-1-yl)phenyl]-7,8-dimethoxy-N,4-dimethyl-4,5-dihydro-3H-2,3-benzodiazepine-3-carboxamide] |  | 0.02 | 0.15 | 0.07 | 0.16 | 0.05 | 0.19 | 0.05 |
| CNC(=O)N1N=C(c2ccc(N3CCNCC3)cc2)c2cc(OC)c(OC)cc2C[C@@H]1C [Example 131.1, (4S)-7,8-dimethoxy-N,4-dimethyl-1-[4-(piperazin-1-yl)phenyl]-4,5-dihydro-3H-2,3-benzodiazepine-3-carboxamide] | 0.06 | 0.07 | 0.11 |  |  |  |  |  |
| CNC(=O)N1N=C(c2ccc(N3CCN(S(C)(=O)=O)CC3)cc2)c2cc(OC)c(OC)cc2C[C@@H]1C [Example 135.1, (4S)-7,8-dimethoxy-N,4-dimethyl-1-{4-[4-(methylsulphonyl)piperazin-1-yl]phenyl}-4,5-dihydro-3H-2,3-benzodiazepine-3-carboxamide] | 0.08 | 0.04 | 0.15 |  |  |  |  |  |
| CNC(=O)N1N=C(c2ccc(-n3nc(-c4ccccc4)cc3C)cc2)c2cc(OC)c(OC)cc2C[C@@H]1C [Example 147.1, (4S)-7,8-dimethoxy-N,4-dimethyl-1-[4-(5-methyl-3-phenyl-1H-pyrazol-1-yl)phenyl]-4,5-dihydro-3H-2,3-benzodiazepine-3-carboxamide] |  | 0.03 | 0.06 | 0.02 | 0.08 | 0.02 | 0.51 | 0.03 |
| CNC(=O)N1N=C(c2ccc(-n3nc(-c4ccccc4)cc3C3CC3)cc2)c2cc(OC)c(OC)cc2C[C@@H]1C [Example 148.1, (4S)-1-[4-(5-cyclopropyl-3-phenyl-1H-pyrazol-1-yl)phenyl]-7,8-dimethoxy-N,4-dimethyl-4,5-dihydro-3H-2,3-benzodiazepine-3-carboxamide] |  | 0.03 | 0.08 | 0.05 | 0.13 | 0.05 | 0.09 | 0.05 |
| CNC(=O)N1N=C(c2ccc(-n3ccc(-c4ccc(F)cc4)n3)cc2)c2cc(OC)c(OC)cc2C[C@@H]1C [Example 150.1, (4S)-1-{4-[3-(4-fluorophenyl)-1H-pyrazol-1-yl]phenyl}-7,8-dimethoxy-N,4-dimethyl-4,5-dihydro-3H-2,3-benzodiazepine-3-carboxamide] |  | 0.11 | 0.23 | 0.13 | 0.34 | 0.23 | 0.34 | 0.18 |
| CNC(=O)C1CCN(c2ccc(C3=NN(C(=O)NC)[C@@H](C)Cc4cc(OC)c(OC)cc43)cc2)CC1 [Example 189.1, (4S)-7,8-dimethoxy-N,4-dimethyl-1-{4-[4-(methylcarbamoyl)piperidin-1-yl]phenyl}-4,5-dihydro-3H-2,3-benzodiazepine-3-carboxamide] | 0.1 | 0.04 | 0.21 |  |  | 0.08 |  |  |
| CNC(=O)N1N=C(c2ccc(N3CCN(C)CC3)cc2)c2cc(OC(F)(F)F)ccc2C[C@@H]1C [Example 250.2, (4S)-N,4-dimethyl-1-[4-(4-methyl-1-piperazinyl)phenyl]-8-(trifluoromethoxy)-4,5-dihydro-3H-2,3-benzodiazepine-3-carboxamide] | 0.04 | 0.02 | 0.05 |  |  |  |  |  |
